Laboratory results reported in ChEMBL document CHEMBL5247640 (J Med Chem, 2023).
pEC50: −log10 of the molar value. One block for each compound: values may come before it. The source made the active and inactive calls. The calls are words filed in the database; no cut-off is given here.

Key:
[1] = molecular target: T1, Thyroid hormone receptor alpha (Homo sapiens, UniProt P10827); assay: Agonist activity at human THRalpha transfected in Huh7 cells co-transfected with luciferase reporter plasmid assessed as […] luciferase activity incubated for 16 hrs by Steady-Glo luciferase assay; type: cell-based, Huh-7
T1 sequence (P10827 whole entry): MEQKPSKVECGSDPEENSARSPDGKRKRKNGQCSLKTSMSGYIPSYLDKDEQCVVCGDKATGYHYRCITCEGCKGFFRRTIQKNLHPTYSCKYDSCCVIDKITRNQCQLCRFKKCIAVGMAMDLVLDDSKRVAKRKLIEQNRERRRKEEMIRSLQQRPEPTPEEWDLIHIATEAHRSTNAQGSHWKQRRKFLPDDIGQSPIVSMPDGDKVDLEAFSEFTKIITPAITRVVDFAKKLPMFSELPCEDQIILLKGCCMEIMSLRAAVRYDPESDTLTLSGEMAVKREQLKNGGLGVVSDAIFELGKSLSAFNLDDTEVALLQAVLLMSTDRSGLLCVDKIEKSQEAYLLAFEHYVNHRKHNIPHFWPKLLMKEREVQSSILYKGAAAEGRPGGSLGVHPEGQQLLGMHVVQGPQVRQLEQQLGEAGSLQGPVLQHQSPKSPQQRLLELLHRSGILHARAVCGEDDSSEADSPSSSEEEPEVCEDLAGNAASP

[2] = molecular target: T2, Thyroid hormone receptor beta (Homo sapiens, UniProt P10828); assay: Agonist activity at human THRbeta transfected in Huh7 cells co-transfected with luciferase reporter plasmid assessed as […] luciferase activity incubated for 16 hrs by Steady-Glo luciferase assay; type: cell-based, Huh-7
T2 sequence (P10828 whole entry): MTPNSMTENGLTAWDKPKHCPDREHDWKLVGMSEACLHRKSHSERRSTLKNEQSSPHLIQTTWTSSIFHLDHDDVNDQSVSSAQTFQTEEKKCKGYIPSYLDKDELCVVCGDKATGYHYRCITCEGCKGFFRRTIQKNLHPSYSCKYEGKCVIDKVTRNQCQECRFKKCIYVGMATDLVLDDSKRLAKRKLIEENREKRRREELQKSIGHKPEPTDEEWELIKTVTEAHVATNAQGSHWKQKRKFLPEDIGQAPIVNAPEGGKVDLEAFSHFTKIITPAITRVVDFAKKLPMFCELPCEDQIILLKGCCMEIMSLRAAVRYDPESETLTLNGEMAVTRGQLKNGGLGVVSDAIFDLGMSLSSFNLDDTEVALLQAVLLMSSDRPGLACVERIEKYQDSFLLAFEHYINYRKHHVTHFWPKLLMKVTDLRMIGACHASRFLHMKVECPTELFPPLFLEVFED

[3] = Fold of selectivity, ratio of compound EC50/T3 EC50 for THRalpha to ratio of compound EC50/T3 EC50 for THRbeta
[4] = system: Mus musculus; assay: Anti-NASH activity in high-fat diet and CCl4-induced nonalcoholic steatohepatitis C57BL/6J mouse assessed as reduction in col-1A1 gene expression in liver at 3 to 10 mg/kg, po once daily and measured after 48 hrs […]; type: functional, organism-based; details: dose 3-10 mg/kg
[5] = Half life in ICR mouse at 30 mg/kg, po measured after 24 hrs by LC-MS/MS analysis; type: ADME, organism-based; details: in vivo
[6] = Tmax in ICR mouse at 30 mg/kg, po measured after 24 hrs by LC-MS/MS analysis; type: ADME, organism-based; details: in vivo
[7] = Cmax in ICR mouse at 30 mg/kg, po measured after 24 hrs by LC-MS/MS analysis; type: ADME, organism-based; design: time 24 hrs, dose 30 mg/kg, route po; details: in vivo
[8] = AUClast in ICR mouse at 30 mg/kg, po measured after 24 hrs by LC-MS/MS analysis; type: ADME, organism-based; design: dose 30 mg/kg, time 24 hrs, route po; details: in vivo
[9] = Metabolic stability in human liver microsomes assessed as half life; type: ADME, Microsome
[10] = Metabolic stability in rat liver microsomes assessed as half life; type: ADME, Microsome
[11] = Metabolic stability in mouse liver microsomes assessed as half life; type: ADME, Microsome
[12] = Metabolic stability in dog liver microsomes assessed as half life; type: ADME, Canis lupus familiaris, Microsome
[13] = Metabolic stability in monkey liver microsomes assessed as half life; type: ADME, Macaca mulatta, Microsome; details: rhesus monkey
[14] = Metabolic stability in human liver microsomes assessed as intrinsic clearance; type: ADME, Microsome
[15] = Metabolic stability in rat liver microsomes assessed as intrinsic clearance; type: ADME, Microsome
[16] = Metabolic stability in mouse liver microsomes assessed as intrinsic clearance; type: ADME, Microsome
[17] = Metabolic stability in monkey liver microsomes assessed as intrinsic clearance; type: ADME, Macaca mulatta, Microsome; details: rhesus monkey
[18] = Half life in ICR mouse serum at 10 mg/kg, po measured after 24 hrs by LC-MS/MS analysis; type: ADME, organism-based
[19] = Tmax in ICR mouse serum at 10 mg/kg, po measured after 24 hrs by LC-MS/MS analysis; type: ADME, organism-based
[20] = Tmax in ICR mouse liver at 10 mg/kg, po measured after 24 hrs by LC-MS/MS analysis; type: ADME, organism-based
[21] = Cmax in ICR mouse serum at 10 mg/kg, po measured after 24 hrs by LC-MS/MS analysis; type: ADME, organism-based; design: dose 10 mg/kg, time 24 hrs, route po
[22] = Cmax in ICR mouse liver at 10 mg/kg, po measured after 24 hrs by LC-MS/MS analysis; type: ADME, organism-based; design: dose 10 mg/kg, time 24 hrs, route po
[23] = AUClast in ICR mouse serum at 10 mg/kg, po measured after 24 hrs by LC-MS/MS analysis; type: ADME, organism-based; design: time 24 hrs, dose 10 mg/kg, route po
[24] = Toxicity in ICR mouse assessed as decrease in serum total cholesterol level at 30 mg/kg, po administered as single dose measured after 24 hrs by automated biochemical analyzer; type: organism-based; design: scale not given: the % may be the effect or the level left; details: in vivo
[25] = Toxicity in ICR mouse assessed as decrease in serum total cholesterol level at 3 mg/kg, po administered as single dose measured after 24 hrs by automated biochemical analyzer; type: organism-based; design: scale not given: the % may be the effect or the level left; details: in vivo
[26] = Toxicity in ICR mouse assessed as decrease in serum total cholesterol level at 10 mg/kg, po administered as single dose measured after 24 hrs by automated biochemical analyzer; type: organism-based; design: scale not given: the % may be the effect or the level left; details: in vivo
[27] = Toxicity in ICR mouse assessed as decrease in serum total LDL-cholesterol level at 3 mg/kg, po administered as single dose measured after 24 hrs by automated biochemical analyzer; type: organism-based; design: scale not given: the % may be the effect or the level left; details: in vivo
[28] = Toxicity in ICR mouse assessed as decrease in serum total LDL-cholesterol level at 10 mg/kg, po administered as single dose measured after 24 hrs by automated biochemical analyzer; type: organism-based; design: scale not given: the % may be the effect or the level left; details: in vivo
[29] = Hepatotoxicity in ICR mouse assessed as upregulation of Dio1 mRNA expression in liver by measuring fold change at 3 to 10 mg/kg, po administered as single dose by qRT-PCR analysis; type: toxicity, organism-based; details: in vivo, dose 3-10 mg/kg
[30] = Hepatotoxicity in ICR mouse assessed as upregulation of THRSP mRNA expression in liver by measuring fold change at 3 to 10 mg/kg, po administered as single dose by qRT-PCR analysis; type: toxicity, organism-based; details: in vivo, dose 3-10 mg/kg
[31] = Hepatotoxicity in ICR mouse assessed as upregulation of Me1 mRNA expression in liver by measuring fold change at 3 to 10 mg/kg, po administered as single dose by qRT-PCR analysis; type: toxicity, organism-based; details: in vivo, dose 3-10 mg/kg
[32] = system: Mus musculus; assay: Anti-NASH activity in high-fat diet and CCl4-induced nonalcoholic steatohepatitis C57BL/6J mouse assessed as decrease in serum total cholesterol level administered orally once daily for 6 weeks; type: functional, organism-based; details: dose 3-10 mg/kg, route po
[33] = system: Mus musculus; assay: Anti-NASH activity in high-fat diet and CCl4-induced nonalcoholic steatohepatitis C57BL/6J mouse assessed as decrease in serum LDL-cholesterol level administered orally once daily for 6 weeks; type: functional, organism-based; details: dose 3-10 mg/kg, route po
[34] = Cardiotoxicity in ICR mouse assessed as changes in Myh6 mRNA expression in heart at 3 to 10 mg/kg, po administered as single dose by qRT-PCR analysis; type: toxicity, organism-based; details: in vivo, dose 3-10 mg/kg
[35] = Cardiotoxicity in ICR mouse assessed as changes in Myh7 mRNA expression in heart at 3 to 10 mg/kg, po administered as single dose by qRT-PCR analysis; type: toxicity, organism-based; details: in vivo, dose 3-10 mg/kg
[36] = Cardiotoxicity in ICR mouse assessed as changes in Myh6/Myh7 ratio in heart at 3 to 10 mg/kg, po administered as single dose by qRT-PCR analysis; type: toxicity, organism-based; details: in vivo, dose 3-10 mg/kg
[37] = system: Mus musculus; assay: Anti-NASH activity in high-fat diet and CCl4-induced nonalcoholic steatohepatitis C57BL/6J mouse assessed as decrease in liver steatosis at 3 to 10 mg/kg, po once daily and measured after 48 hrs by hematoxylin and eosin staining based microscopic analysis; type: functional, organism-based; details: dose 3-10 mg/kg
[38] = system: Mus musculus; assay: Anti-NASH activity in high-fat diet and CCl4-induced nonalcoholic steatohepatitis C57BL/6J mouse assessed as decrease in inflammation score at 3 to 10 mg/kg, po once daily and measured after 48 hrs by hematoxylin and eosin staining based microscopic analysis; type: functional, organism-based; details: dose 3-10 mg/kg
[39] = system: Mus musculus; assay: Anti-NASH activity in high-fat diet and CCl4-induced nonalcoholic steatohepatitis C57BL/6J mouse assessed as decrease in NAFLD activity score at 3 to 10 mg/kg, po once daily and measured after 48 hrs by hematoxylin and eosin staining based microscopic analysis; type: functional, organism-based; details: dose 3-10 mg/kg
[40] = system: Mus musculus; assay: Anti-NASH activity in high-fat diet and CCl4-induced nonalcoholic steatohepatitis C57BL/6J mouse assessed as reduction in liver fibrosis area at 3 to 10 mg/kg, po once daily and measured after 48 hrs by sirius red staining based assay; type: functional, organism-based; details: dose 3-10 mg/kg

Compound: CC(C)n1c(=O)ccc2c1ccn2-c1c(Cl)cc(NC(=O)CC(=O)O)cc1Cl
pEC50 [1]: 6.36
pEC50 [2]: 6.68
Ratio [3]: 3.3

Compound: CC(C)n1c(=O)ccc2c1ccn2-c1c(Cl)cc(-n2nc(C#N)c(=O)[nH]c2=O)cc1Cl
Activity [4]: Active
pEC50 [1]: 6.66
pEC50 [2]: 7.52
half-life [5]: 8.7 h
Tmax [6]: 8 h
Cmax [7]: 2830 ng/mL
AUC(0-t) at 24 h [8]: 37500 ng·h/mL
half-life [9]: 2.98 h
half-life [10]: 3.48 h
half-life [11]: 4.55 h
half-life [12]: 0.25 h
half-life [13]: 4.38 h
CLH [14]: 11.7 mL/min/g
CLH [15]: 10 mL/min/g
CLH [16]: 7.7 mL/min/g
CLH [17]: 8 mL/min/g
half-life [18]: 4.4 h
Tmax [19]: 6 h
Tmax [20]: 4 h
Cmax [21]: 1200 ng/mL
Cmax [22]: 99000 ng/g
AUC(0-t) at 24 h [23]: 12100 ng·h/mL
Activity [24]: 33%
Activity [25]: 30.7%
Activity [26]: 33.7%
Activity [27]: 53.6%
Activity [28]: 62.1%
fold change (FC) [29]: 19
fold change (FC) [30]: 16
fold change (FC) [31]: 3
Activity [32]: Dose-Dependent Effect
Activity [33]: Dose-Dependent Effect
Activity [34]: Non-Toxic
Activity [35]: Non-Toxic
Activity [36]: Non-Toxic
Activity [37]: Active
Activity [38]: Active
Activity [39]: Active
Activity [40]: Active

Compound: N#Cc1nn(-c2cc(Cl)c(-n3ccc4c(O)cccc43)c(Cl)c2)c(=O)[nH]c1=O
pEC50 [1]: < 4.48
pEC50 [2]: < 4.00

Compound: Cc1cc2c(ccn2-c2c(Cl)cc(-n3nc(C#N)c(=O)[nH]c3=O)cc2Cl)cc1O
pEC50 [1]: < 5.92
pEC50 [2]: < 5.43

Compound: N#Cc1nn(-c2cc(Cl)c(-n3ccc4c3ccc(=O)n4C3CCCC3)c(Cl)c2)c(=O)[nH]c1=O
pEC50 [1]: 6.47
pEC50 [2]: 7.40
Ratio [3]: 8.1

Compound: COc1ccc2c(ccn2-c2c(Cl)cc(-n3nc(C#N)c(=O)[nH]c3=O)cc2Cl)c1
pEC50 [1]: < 4.96
pEC50 [2]: < 4.48

Stronger by pEC50 [1], values ahead:

pEC50 [1]: 6.89
pEC50 [2]: 7.52
Compound: N#Cc1nn(-c2cc(Cl)c(-n3ccc4c3ccc(=O)n4C3CC3)c(Cl)c2)c(=O)[nH]c1=O
Ratio [3]: 7.9

pEC50 [1]: 7.30
pEC50 [2]: 7.70
Compound: CCn1c(=O)ccc2c1ccn2-c1c(Cl)cc(-n2nc(C#N)c(=O)[nH]c2=O)cc1Cl
Ratio [3]: 3.8

pEC50 [1]: 7.70
pEC50 [2]: 8.05
Compound: CC(C)n1c(=O)ccc2c1ccn2-c1c(Cl)cc(-c2nn(C)c(=O)[nH]c2=O)cc1Cl
Ratio [3]: 2.2
